Patent publication US10023591B2, “Heterocyclic derivatives and use thereof” (C&C RESEARCH LABORATORIES, priority 2014, dated 2018)

Tests used:
[1] = test system: LNCaP prostate cancer cell line; test: Cell growth inhibition assay, LNCaP (CellTiter-Glo); type: cell-based; details: Homo sapiens; LNCaP, 10,000 cells/well, medium with 10 ng/mL IL-6, 96 hours
Protocol: (§1) The inhibitory effects of the compounds of the present invention against the growth of cancer cells were evaluated as shown below. The cancer cell lines including prostate cancer cell lines (LNCaP, DU-145), stomach cancer cell line (NCI-N87), and breast cancer cell lines (MDA-MB-468) were cultured under the protocol provided by each supplier. A medium supplemented with 10 ng/mL of IL-6 was used for LNCaP, a prostate cancer cell line, when treated with a drug. Each type of cells to be used in experiments was sub-cultured in a 96-well plate by counting the exact number of cells using Tali™ Image-based Cytometer (Life Technologies). In a 96-well plate, DU-145 was employed with 3,000 cells/well; NCI-N87 was employed with 5,000 cells/well; and LNCaP and MDA-MB-468 were employed with 10,000 cells/well. The cells were treated with the compounds listed in Examples which were diluted in various concentrations. Upon completion of the compounds treatment, LNCaP, DU-145, NCI-N87 cells were cultured at 37° C. under 5% CO2 for 96 hours, and MDA-MB-468 cells were cultured at 37° C. in air for 96 hours. Subsequently, the cells were observed under microscope and drug precipitation and particular findings were investigated and recorded. And then, the 96-well plate was placed at room temperature for 30 minutes, added with 20 pt/well of CellTiter-Glo solution (Cat No. G7573, Promega) and shaken for 10 minutes, followed by being subjected to the measurement using PHERAstar™ microplate reader (BMG LABTECH) according to the supplier's general luminometer protocol. Wells where only culture liquid added without cell plating were used as a negative control, whereas wells where culture liquid containing 0.1% DMSO instead of the compounds listed in Examples were used as a positive control.

[2] = test system: DU-145 prostate cancer cell line; test: Cell growth inhibition assay, DU-145 (CellTiter-Glo); type: cell-based; details: Homo sapiens; DU-145, 3,000 cells/well, 96 hours
Protocol: as §1

[3] = test system: NCI-N87 stomach cancer cell line; test: Cell growth inhibition assay, NCI-N87 (CellTiter-Glo); type: cell-based; details: Homo sapiens; NCI-N87, 5,000 cells/well, 96 hours
Outline: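 Cells seeded at 3,000 (DU-145), 5,000 (NCI-N87) or 10,000 (LNCaP, MDA-MB-468) per well, LNCaP in medium with 10 ng/mL IL-6. Serially diluted compound for 96 h at 37 °C (MDA-MB-468 in air, others 5% CO2); viability by CellTiter-Glo luminescence versus 0.1% DMSO wells.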

STAT3 = STAT3 reporter gene assay (luciferase), LNCaP stable cell line pSTAT3-TA-luc, IL-6 stimulation; type: cell-based, human; details: Homo sapiens
Outline: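 LNCaP cells stably carrying pSTAT3-TA-luc were plated 24 h in 3% DCC-FBS medium, then given compound followed by IL-6 (10 ng/mL final) for 24 h at 37 °C. Luciferase was read from lysates, with CellTiter-Glo viability on a duplicate plate. Stimulated 0.1% DMSO wells served as uninhibited control.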

STAT1 = STAT1 reporter gene assay (luciferase), U2OS stable cell line pGL4-STAT1-TA-luc, IFN-γ stimulation; type: cell-based, human; details: Homo sapiens, IFN-γ 50 ng/mL, 8 hours, read-out: IC50 (μM) pSTAT1
Outline: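 U2OS cells stably carrying a STAT1-driven luciferase reporter were treated with serially diluted compounds plus IFN-γ (50 ng/mL final) for 8 h at 37 °C in 10% FBS medium. Luciferase read after lysis; parallel plate assessed for cytotoxicity by CellTiter-Glo.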

[4] = test system: MDA-MB-468 breast cancer cell line; test: Cell growth inhibition assay, MDA-MB-468 (CellTiter-Glo); type: cell-based; details: Homo sapiens, MDA-MB-468, 96 hours
Protocol: as §1

Row | SMILES | IC50 [1] [µM] | IC50 [2] [µM] | IC50 [3] [µM] | IC50 (STAT3) [µM] | IC50 (STAT1) [µM] | IC50 [4] [µM]
1 | CC(C)(c1ccc2sc(C(=O)Nc3cc(Cl)nc(Oc4ccc(C(F)(F)F)cc4)c3)cc2c1)S(C)(=O)=O [Example 67, N-(2-chloro-6-(4-(trifluoromethyl)phenoxy)pyridin-4-yl)-5-(2-(methylsulfonyl)propan-2-yl)benzo[b]thiophene-2-carboxamide] | 0.047 | 0.0053 | 0.021 | 0.0084 | > 50 | –
2 | CC(C)(c1ccc2sc(C(=O)Nc3cc(Cl)nc(Oc4ccc(F)c(Cl)c4)c3)cc2c1)S(C)(=O)=O [Example 71, N-(2-chloro-6-(3-chloro-4-fluorophenoxy)pyridin-4-yl)-5-(2-(methylsulfonyl)propan-2-yl)benzo[b]thiophene-2-carboxamide] | – | – | 0.02 | 0.011 | > 50 | 0.0056
3 | CC(C)(c1ccc2sc(C(=O)Nc3cc(Cl)nc(Oc4ccc(Cl)c(F)c4)c3)cc2c1)S(C)(=O)=O [Example 72, N-(2-chloro-6-(4-chloro-3-fluorophenoxy)pyridin-4-yl)-5-(2-(methylsulfonyl)propan-2-yl)benzo[b]thiophene-2-carboxamide] | – | – | 0.021 | 0.01 | > 50 | 0.004
4 | CC(C)(c1ccc2sc(C(=O)Nc3cc(Cl)nc(Oc4ccc(F)c(F)c4)c3)cc2c1)S(C)(=O)=O [Example 79, N-(2-chloro-6-(3,4-difluorophenoxy)pyridin-4-yl)-5-(2-(methylsulfonyl)propan-2-yl)benzo[b]thiophene-2-carboxamide] | – | – | 0.043 | 0.041 | > 50 | 0.0074
5 | CC(C)(c1ccc2sc(C(=O)Nc3cc(Cl)nc(Oc4cccc(Cl)c4)c3)cc2c1)S(C)(=O)=O [Example 80, N-(2-chloro-6-(3-chlorophenoxy)pyridin-4-yl)-5-(2-(methylsulfonyl)propan-2-yl)benzo[b]thiophene-2-carboxamide] | – | – | 0.069 | 0.04 | > 50 | 0.0084
6 | CC(C)(c1ccc2sc(C(=O)Nc3cc(Cl)nc(Oc4cccc(OC(F)(F)F)c4)c3)cc2c1)S(C)(=O)=O [Example 81, N-(2-chloro-6-(3-(trifluoromethoxy)phenoxy)pyridin-4-yl)-5-(2-(methylsulfonyl)propan-2-yl)benzo[b]thiophene-2-carboxamide] | – | – | 0.033 | 0.005 | > 50 | 0.0038
7 | CC(C)(c1ccc2sc(C(=O)Nc3cc(Cl)nc(Oc4ccc(Cl)c(Cl)c4)c3)cc2c1)S(C)(=O)=O [Example 82, N-(2-chloro-6-(3,4-dichlorophenoxy)pyridin-4-yl)-5-(2-(methylsulfonyl)propan-2-yl)benzo[b]thiophene-2-carboxamide] | – | – | 0.035 | 0.0058 | > 50 | 0.0041
8 | CC(C)(c1ccc2sc(C(=O)Nc3cc(Cl)nc(Oc4ccc(Cl)cc4F)c3)cc2c1)S(C)(=O)=O [Example 83, N-(2-chloro-6-(4-chloro-2-fluorophenoxy)pyridin-4-yl)-5-(2-(methylsulfonyl)propan-2-yl)benzo[b]thiophene-2-carboxamide] | – | – | 0.02 | 0.0082 | > 50 | 0.0052
9 | CC(C)(c1ccc2sc(C(=O)Nc3cc(Cl)nc(Oc4ccc(OC(F)(F)F)cc4)c3)cc2c1)S(C)(=O)=O [Example 84, N-(2-chloro-6-(4-(trifluoromethoxy)phenoxy)pyridin-4-yl)-5-(2-(methylsulfonyl)propan-2-yl)benzo[b]thiophene-2-carboxamide] | – | – | 0.02 | 0.0065 | > 50 | 0.0026

Second part, the compound after the results:

Row | IC50 [1] [µM] | IC50 [2] [µM] | IC50 [3] [µM] | IC50 (STAT3) [µM] | IC50 (STAT1) [µM] | IC50 [4] [µM] | SMILES
10 | – | – | 0.15 | 0.089 | > 50 | 0.024 | CC(C)(c1ccc2sc(C(=O)Nc3cc(Cl)nc(OCc4ccc(Cl)cc4)c3)cc2c1)S(C)(=O)=O [Example 86, N-(2-chloro-6-((4-chlorobenzyl)oxy)pyridin-4-yl)-5-(2-(methylsulfonyl)propan-2-yl)benzo[b]thiophene-2-carboxamide]
11 | 0.14 | 0.046 | – | 0.11 | > 50 | – | CN(c1ccc(Cl)cc1)c1cc(Cl)cc(NC(=O)c2cc3cc(C(C)(C)S(C)(=O)=O)ccc3s2)c1 [Example 99, N-(3-chloro-5-((4-chlorophenyl)(methyl)amino)phenyl)-5-(2-(methylsulfonyl)propan-2-yl)benzo[b]thiophene-2-carboxamide]
12 | 0.14 | 0.026 | – | 0.07 | > 50 | – | CN(c1ccc(Cl)cc1)c1cc(NC(=O)c2cc3cc(C(C)(C)S(C)(=O)=O)ccc3s2)cc(Cl)n1 [Example 100, N-(2-chloro-6-((4-chlorophenyl)(methyl)amino)pyridin-4-yl)-5-(2-(methylsulfonyl)propan-2-yl)benzo[b]thiophene-2-carboxamide]
13 | – | – | 1.7 | 0.46 | > 50 | 0.068 | Cc1cnc(Oc2cc(NC(=O)c3cc4cc(C(C)(C)S(C)(=O)=O)ccc4s3)cc(Cl)n2)s1 [Example 109, N-(2-chloro-6-((5-methylthiazol-2-yl)oxy)pyridin-4-yl)-5-(2-(methylsulfonyl)propan-2-yl)benzo[b]thiophene-2-carboxamide]
14 | – | – | 0.14 | 0.019 | > 50 | 0.021 | Cc1sccc1Oc1cc(NC(=O)c2cc3cc(C(C)(C)S(C)(=O)=O)ccc3s2)cc(Cl)n1 [Example 115, N-(2-chloro-6-((2-methylthiophen-3-yl)oxy)pyridin-4-yl)-5-(2-(methylsulfonyl)propan-2-yl)benzo[b]thiophene-2-carboxamide]
15 | – | – | 0.91 | 0.2 | > 50 | 0.062 | Cc1onc(Oc2cc(NC(=O)c3cc4cc(C(C)(C)S(C)(=O)=O)ccc4s3)cc(Cl)n2)c1C [Example 116, N-(2-chloro-6-((4,5-dimethylisoxazol-3-yl)oxy)pyridin-4-yl)-5-(2-(methylsulfonyl)propan-2-yl)benzo[b]thiophene-2-carboxamide]
16 | – | – | 0.037 | 0.028 | > 50 | 0.0053 | CC(C)(c1ccc2sc(C(=O)Nc3cc(Cl)nc(Oc4csc(C(F)(F)F)c4)c3)cc2c1)S(C)(=O)=O [Example 117, N-(2-chloro-6-((5-(trifluoromethyl)thiophen-3-yl)oxy)pyridin-4-yl)-5-(2-(methylsulfonyl)propan-2-yl)benzo[b]thiophene-2-carboxamide]
17 | – | – | 7.8 | 2.8 | 12.8 | > 0.1 | Cc1csc(Oc2cc(NC(=O)c3cc4cc(C(C)(C)S(C)(=O)=O)ccc4s3)cc(Cl)n2)n1 [Example 119, N-(2-chloro-6-((4-methylthiazol-2-yl)oxy)pyridin-4-yl)-5-(2-(methylsulfonyl)propan-2-yl)benzo[b]thiophene-2-carboxamide]
18 | – | – | 0.12 | 0.078 | 39.6 | 0.026 | Cc1ccc(Oc2cc(NC(=O)c3cc4cc(C(C)(C)S(C)(=O)=O)ccc4s3)cc(Cl)n2)s1 [Example 120, N-(2-chloro-6-((5-methylthiophen-2-yl)oxy)pyridin-4-yl)-5-(2-(methylsulfonyl)propan-2-yl)benzo[b]thiophene-2-carboxamide]
19 | – | – | 0.15 | 0.027 | > 50 | 0.027 | CC(C)(c1ccc2sc(C(=O)Nc3cc(Cl)nc(Oc4ccsc4Cl)c3)cc2c1)S(C)(=O)=O [Example 121, N-(2-chloro-6-((2-chlorothiophen-3-yl)oxy)pyridin-4-yl)-5-(2-(methylsulfonyl)propan-2-yl)benzo[b]thiophene-2-carboxamide]
